Data from patent EP1258527A1, “Membrane-associated shingomyelinase derived from bovine brain, isolation method therfor and anti-sphingomyelinase monocional antibody” (SK Corporation, priority 2001, dated 2002).
“Also recorded” adds a separate entry of the source. Where two headings read alike, the source gives them in different places. Each block holds one molecule with its values, some of them ahead of it.

Experiments:
N-mSMase ε = test: N-mSMase activity assay: influence of cations, reducing agents and surfactants on enzyme activity; assay type: biochemical, bovine; details: for influence of reducing agents on N-mSMase ε activity: 0.5-10 mM, relative to control without reducing agent; for influence of agents similar to glutathione on N-mSMase ε activity: 1, 3, 5 or 10 mM; for inhibition of activity at 10 mM: glutathione concentration of 10 mM
Protocol: (§1) After being dried with a nitrogen stream, [N-methyl-^14 C]sphingomyelin (choline residue labeled with ^14C) was suspended in ethanol. 10 µl of a sample was mixed with 100 µl of a reaction solution (10 mM MgSO4, 50 µM [N-methyl-^14 C]sphingomyelin (c.a. 60,000 cpm), 2 mM sodium deoxycholate, 100 mM Tris-HCl (pH 7.0)) and incubated at 37 °C for 30 min. Addition of 320 µl of a mixture of chloroform/methanol (1:1 volume ratio) and 30 µl of 2N hydrochloride stopped the reaction. After vortexing and centrifuging the resulting mixture at 10,000xg, 200 µl of the aqueous layer was mixed with 2.5 ml of a scintillation cocktail, such as that manufactured by Packard Instrument Co., U.S.A., identified as "Insta gel-XF", followed by measuring the radioactivity with the aid of a Packard Tricarb liquid β-scintillation counter.
(§2) Separately, the same Lineweaver-Burk analysis was carried out, but in the presence of 0.4, 1.0 and 2.0 mM sodium deoxycholate.
In order to examine the dependency of N-mSMase ε activity on Mg^2+, Fraction B obtained in Step 6 of Example 1 was desalted by being applied to a PD-10 column (Sephadex G-25, Pharmacia Biotechnology Co., Sweden). For use, the column was equilibrated twice with distilled water, in advance. The desalted protein fraction (corresponding to protein 10 ng) was measured for N-mSMase ε activity in the presence of 1, 5, 10 and 25 mM of MgCl2 in the manner described in Experimental Example 1.
An examination was made of the influence of other cations, such as Ca^2+, Fe^3+, Fe^2+, Zn^2+, Cu^2+ and […] on the activity of N-mSMase ε. To a solution containing the desalted protein fraction (corresponding to protein 10 ng) obtained in C and 5 mM MgCl2, CaCl2, FeCl3, FeCl2, ZnCl2 or CuCl2 was added to yield a final concentration of 0.01, 0.02, 0.05, 0.1, 0.25 or 0.5 mM, followed by the measurement of N-mSMase ε activity in accordance with the procedure of Experimental Example 1.
After the addition of 10 µl of [N-methyl-^14C]sphingomyelin, the N-mSMase activity was measured according to the procedure of Experimental Example 1. For comparison, a Tris-HCl buffer containing no reducing agents was used as a control. The N-mSMase ε activity influenced by the reducing agents was expressed as a percentage relative to the control.
After being treated with 1, 3, 5 or 10 mM of GSSG, cystein, cystein-glycine or γ-glutaric acid-cystein, the activity of N-mSMase ε was measured in the same manner.
Sodium deoxycholate and Triton X-100 were selected as surfactants to be tested. The protein fraction obtained in C (corresponding to 10 ng of protein) was measured for N-mSMase ε activity in reaction solutions containing 0.5, 1, 2 and 5 mM of sodium deoxycholate, respectively, in accordance with the procedure of Experimental Example 1. In the case of Triton X-100, it was prepared at concentrations of 0.05, 0.01, 0.5 and 0.1 %.

[1] = tested on: partially purified N-mSMase; details: partially purified rat brain N-mSMase (Liu et al.); cited from earlier work
[2] = tested on: N-mSMase ε, membrane-associated, Mg^2+-dependent, neutral pH optimum sphingomyelinase (60 kDa) from bovine brain; test: Lineweaver-Burk kinetic analysis (N-mSMase activity assay); assay type: biochemical
Protocol: as §1
The N-mSMase ε prepared in Step 6 of Example 1 was subjected to Lineweaver-Burk analysis. In this regard, enzyme N-mSMase ε was used at amounts of 10 ng or less with the substrate sphingomyelin varying, in concentration, from 6.25 to 100 µM.
as §2

[3] = cation chloride added at 0.01-0.5 mM in the presence of 5 mM MgCl2, read-out: IC50 (inhibition of enzyme activity, hydrolysis of sphingomyelin)

influence of reducing agents on N-mSMase ε activity (N-mSMase ε): not inhibited
Molecule: O[C@H](CS)[C@H](O)CS (racemic) [DTT, dithiothreitol]
influence of reducing agents on N-mSMase ε activity (N-mSMase ε; listed as dithiothreitol): neither dithiothreitol nor 2-mercaptoethanol has any influence
effect on activity of partially purified N-mSMase [1]: promoted

influence on the activity of N-mSMase ε (N-mSMase ε; concentration of 0.5 mM or less, 5 mM MgCl2): no influence
Molecule: [Ca+2].[Cl-].[Cl-] [Ca^2+, CaCl2]

IC50 (N-mSMase ε; [3]): 28 µM
Molecule: [Cl][Cu][Cl] [Cu^2+, CuCl2]

dependency of N-mSMase ε activity on Mg^2+ (N-mSMase ε; 1, 5, 10 and 25 mM MgCl2, desalted fraction): Mg^2+-concentration dependent
Molecule: [Cl-].[Cl-].[Mg+2] [Mg^2+, MgCl2]

IC50 (N-mSMase ε; [3]): 32 µM
Molecule: [Cl-].[Cl-].[Zn+2] [Zn^2+, ZnCl2]

IC50 (N-mSMase ε; glutathione 0.5-10 mM, preincubation 37 °C 10 min, read-out: IC50 (inhibition of sphingomyelinase activity)): 8000 µM
inhibition of activity at 10 mM (N-mSMase ε): completely inhibited
inhibition of activity at 10 mM (N-mSMase ε; listed as Glutathione): fully inhibited
change of activity with concentration up to 3 mM (N-mSMase ε; glutathione up to 3 mM): increases
Molecule: N[C@@H](CCC(=O)N[C@@H](CS)C(=O)NCC(=O)O)C(=O)O [glutathione]

Km ([2]; substrate sphingomyelin 6.25 to 100 µM, enzyme 10 ng or less, absence of surfactants): 47 µM
Km value in the presence of sodium deoxycholate ([2]; substrate sphingomyelin, 0.4, 1.0 and 2.0 mM sodium deoxycholate): could not change
Molecule: sphingomyelin

Second part, the molecule before the results:

Molecule: OCCS [2-mercaptoethanol]
influence of reducing agents on N-mSMase ε activity (N-mSMase ε): not inhibited; also recorded: neither dithiothreitol nor 2-mercaptoethanol has any influence

Molecule: N[C@@H](CS)C(=O)O [cystein]
influence of agents similar to glutathione on N-mSMase ε activity (N-mSMase ε): inhibited; also recorded: reduction in the activity

Molecule: N[C@@H](CCC(=O)N[C@@H](CS)C(=O)O)C(=O)O [γ-glutaric acid-cystein]
influence of agents similar to glutathione on N-mSMase ε activity (N-mSMase ε): inhibited; also recorded: reduction in the activity

Molecule: oxidized glutathione [GSSG]
influence of agents similar to glutathione on N-mSMase ε activity (N-mSMase ε): inhibited; also recorded: reduction in the activity

Molecule: phosphatidylserine
effect on activity of partially purified N-mSMase [1]: promoted

Molecule: sodium deoxycholate
effect on Km value of N-mSMase ε (N-mSMase ε; Lineweaver-Burk analysis in the presence of 0.4, 1.0 and 2.0 mM sodium deoxycholate): could not change
